Columns and labels:
Type in all cases: functional
Conditions in all cases: read-out: Activity
[1] = system: MDA-MB-468; assay: Cytotoxicity against human MDA-MB-468 cells assessed as cell viability at 10 uM incubated for 48 hrs by sulforhodamine B assay relative to control
[2] = system: BT-549; assay: Cytotoxicity against human BT-549 cells assessed as cell viability at 10 uM incubated for 48 hrs by sulforhodamine B assay relative to control
[3] = system: Hs-578T; assay: Cytotoxicity against human HS-578T cells assessed as cell viability at 10 uM incubated for 48 hrs by sulforhodamine B assay relative to control
[4] = system: MDA-MB-231; assay: Cytotoxicity against human MDA-MB-231 cells assessed as cell viability at 10 uM incubated for 48 hrs by sulforhodamine B assay relative to control
[5] = system: DU-145; assay: Cytotoxicity against human DU-145 cells assessed as cell viability at 10 uM incubated for 48 hrs by sulforhodamine B assay relative to control
[6] = system: TK-10; assay: Cytotoxicity against human TK-10 cells assessed as cell viability at 10 uM incubated for 48 hrs by sulforhodamine B assay relative to control
[7] = system: SN12C; assay: Cytotoxicity against human SN12C cells assessed as cell viability at 10 uM incubated for 48 hrs by sulforhodamine B assay relative to control
[8] = system: RXF 393; assay: Cytotoxicity against human RXF 393 cells assessed as cell viability at 10 uM incubated for 48 hrs by sulforhodamine B assay relative to control
[9] = system: CAKI-1; assay: Cytotoxicity against human CAKI-1 cells assessed as cell viability at 10 uM incubated for 48 hrs by sulforhodamine B assay relative to control
[10] = system: ACHN; assay: Cytotoxicity against human ACHN cells assessed as cell viability at 10 uM incubated for 48 hrs by sulforhodamine B assay relative to control
[11] = system: 786-0; assay: Cytotoxicity against human 786-0 cells assessed as cell viability at 10 uM incubated for 48 hrs by sulforhodamine B assay relative to control
[12] = system: SK-OV-3; assay: Cytotoxicity against human SK-OV-3 cells assessed as cell viability at 10 uM incubated for 48 hrs by sulforhodamine B assay relative to control
[13] = system: NCI/ADR-RES; assay: Cytotoxicity against human NCI/ADR-RES cells assessed as cell viability at 10 uM incubated for 48 hrs by sulforhodamine B assay relative to control
[14] = system: OVCAR-8; assay: Cytotoxicity against human OVCAR-8 cells assessed as cell viability at 10 uM incubated for 48 hrs by sulforhodamine B assay relative to control
[15] = system: OVCAR-3; assay: Cytotoxicity against human OVCAR-3 cells assessed as cell viability at 10 uM incubated for 48 hrs by sulforhodamine B assay relative to control
[16] = system: UACC-62; assay: Cytotoxicity against human UACC-62 cells assessed as cell viability at 10 uM incubated for 48 hrs by sulforhodamine B assay relative to control
[17] = system: UACC-257; assay: Cytotoxicity against human UACC-257 cells assessed as cell viability at 10 uM incubated for 48 hrs by sulforhodamine B assay relative to control
[18] = system: SK-MEL-28; assay: Cytotoxicity against human SK-MEL-28 cells assessed as cell viability at 10 uM incubated for 48 hrs by sulforhodamine B assay relative to control
[19] = system: MDA-MB-435; assay: Cytotoxicity against human MDA-MB-435 cells assessed as cell viability at 10 uM incubated for 48 hrs by sulforhodamine B assay relative to control
[20] = system: M14; assay: Cytotoxicity against human M14 cells assessed as cell viability at 10 uM incubated for 48 hrs by sulforhodamine B assay relative to control
[21] = system: Malme-3M; assay: Cytotoxicity against human Malme-3M cells assessed as cell viability at 10 uM incubated for 48 hrs by sulforhodamine B assay relative to control
[22] = system: CCRF-CEM; assay: Cytotoxicity against human CCRF-CEM cells assessed as cell viability at 10 uM incubated for 48 hrs by sulforhodamine B assay relative to control
[23] = system: SR; assay: Cytotoxicity against human SR cells assessed as cell viability at 10 uM incubated for 48 hrs by sulforhodamine B assay relative to control
[24] = system: HOP-92; assay: Cytotoxicity against human HOP-92 cells assessed as cell viability at 10 uM incubated for 48 hrs by sulforhodamine B assay relative to control
[25] = system: NCI-H226; assay: Cytotoxicity against human NCI-H226 cells assessed as cell viability at 10 uM incubated for 48 hrs by sulforhodamine B assay relative to control
[26] = system: NCI-H23; assay: Cytotoxicity against human NCI-H23 cells assessed as cell viability at 10 uM incubated for 48 hrs by sulforhodamine B assay relative to control
[27] = system: NCI-H322M; assay: Cytotoxicity against human NCI-H322M cells assessed as cell viability at 10 uM incubated for 48 hrs by sulforhodamine B assay relative to control
[28] = system: NCI-H460; assay: Cytotoxicity against human NCI-H460 cells assessed as cell viability at 10 uM incubated for 48 hrs by sulforhodamine B assay relative to control
[29] = system: NCI-H522; assay: Cytotoxicity against human NCI-H522 cells assessed as cell viability at 10 uM incubated for 48 hrs by sulforhodamine B assay relative to control
[30] = system: COLO 205; assay: Cytotoxicity against human COLO 205 cells assessed as cell viability at 10 uM incubated for 48 hrs by sulforhodamine B assay relative to control
[31] = system: HCT-116; assay: Cytotoxicity against human HCT-116 cells assessed as cell viability at 10 uM incubated for 48 hrs by sulforhodamine B assay relative to control
[32] = system: HCT-15; assay: Cytotoxicity against human HCT-15 cells assessed as cell viability at 10 uM incubated for 48 hrs by sulforhodamine B assay relative to control
[33] = system: HCT-29; assay: Cytotoxicity against human […] cells assessed as cell viability at 10 uM incubated for 48 hrs by sulforhodamine B assay relative to control
[34] = system: KM12; assay: Cytotoxicity against human KM12 cells assessed as cell viability at 10 uM incubated for 48 hrs by sulforhodamine B assay relative to control
[35] = system: SW-620; assay: Cytotoxicity against human SW-620 cells assessed as cell viability at 10 uM incubated for 48 hrs by sulforhodamine B assay relative to control
[36] = system: SF-268; assay: Cytotoxicity against human SF-268 cells assessed as cell viability at 10 uM incubated for 48 hrs by sulforhodamine B assay relative to control
[37] = system: SF-295; assay: Cytotoxicity against human SF-295 cells assessed as cell viability at 10 uM incubated for 48 hrs by sulforhodamine B assay relative to control
[38] = system: SNB-75; assay: Cytotoxicity against human SNB-75 cells assessed as cell viability at 10 uM incubated for 48 hrs by sulforhodamine B assay relative to control
[39] = system: U-251; assay: Cytotoxicity against human U-251 cells assessed as cell viability at 10 uM incubated for 48 hrs by sulforhodamine B assay relative to control
[40] = system: LOX IMVI; assay: Cytotoxicity against human LOX IMVI cells assessed as cell viability at 10 uM incubated for 48 hrs by sulforhodamine B assay relative to control

Row | Structure (SMILES) | viability at 10 µM [1] [%] | viability at 10 µM [2] [%] | viability at 10 µM [3] [%] | viability at 10 µM [4] [%] | viability at 10 µM [5] [%] | viability at 10 µM [6] [%] | viability at 10 µM [7] [%] | viability at 10 µM [8] [%] | viability at 10 µM [9] [%] | viability at 10 µM [10] [%] | viability at 10 µM [11] [%] | viability at 10 µM [12] [%] | viability at 10 µM [13] [%] | viability at 10 µM [14] [%] | viability at 10 µM [15] [%] | viability at 10 µM [16] [%] | viability at 10 µM [17] [%] | viability at 10 µM [18] [%] | viability at 10 µM [19] [%] | viability at 10 µM [20] [%] | also measured
1 | O=C(NCCNc1nccc(-c2c(-c3cccc(F)c3)nc3sccn23)n1)C1CCCCC1 | 59.5 | 93.9 | 91.8 | 104 | 81.6 | 88.6 | 67.5 | 78.2 | 70.4 | 67.1 | 69.1 | 50.1 | 66.9 | 56.9 | 76.3 | 58.4 | 113 | 106 | 65.5 | 73.6 | viability at 10 µM [21]: 130%; viability at 10 µM [22]: 70%; viability at 10 µM [23]: 91%; viability at 10 µM [24]: 135%; viability at 10 µM [25]: 60.9%; viability at 10 µM [26]: 97%; viability at 10 µM [27]: 104%; viability at 10 µM [28]: 91.6%; viability at 10 µM [29]: 79.3%; viability at 10 µM [30]: 53.5%; viability at 10 µM [31]: 51.9%; viability at 10 µM [32]: 61%; viability at 10 µM [33]: 43.6%; viability at 10 µM [34]: 81.6%; viability at 10 µM [35]: 114%; viability at 10 µM [36]: 77.3%; viability at 10 µM [37]: 93.6%; viability at 10 µM [38]: 88.6%; viability at 10 µM [39]: 90.5%; viability at 10 µM [40]: 65.9%
2 | O=S(=O)(NCCCNc1nccc(-c2c(-c3cccc(F)c3)nc3sccn23)n1)c1cccc2ccccc12 | 59.3 | 65 | 55.9 | 4.05 | 49.9 | 71.7 | 46.9 | 62.9 | 29.1 | 34.7 | 52.9 | 65.8 | 47.1 | 38.5 | 68.7 | 24.3 | 72.8 | 77.5 | 22.6 | 42.7 | viability at 10 µM [21]: 78.7%; viability at 10 µM [22]: 38.5%; viability at 10 µM [23]: 62%; viability at 10 µM [24]: 94.6%; viability at 10 µM [25]: 36.8%; viability at 10 µM [26]: 66.2%; viability at 10 µM [27]: 81.6%; viability at 10 µM [28]: 19.9%; viability at 10 µM [29]: 56.3%; viability at 10 µM [30]: 21.5%; viability at 10 µM [31]: 32.4%; viability at 10 µM [32]: 18.1%; viability at 10 µM [33]: 1.97%; viability at 10 µM [34]: 26%; viability at 10 µM [35]: 42.1%; viability at 10 µM [36]: 44.5%; viability at 10 µM [37]: 34.6%; viability at 10 µM [38]: 86.5%; viability at 10 µM [39]: 59.1%; viability at 10 µM [40]: 20.9%
3 | O=C(NCCCNc1nccc(-c2c(-c3cccc(F)c3)nc3sccn23)n1)C1CCCCC1 | 74.3 | 78.6 | 80.2 | 80.6 | 92.2 | 78.9 | 67.3 | 94.3 | 55.7 | 45.3 | 62.1 | 87.7 | 72.6 | 71.1 | 82.1 | 36.4 | 95.2 | 84.5 | 50.5 | 57.6 | viability at 10 µM [21]: 74.7%; viability at 10 µM [22]: 73.2%; viability at 10 µM [23]: 70.2%; viability at 10 µM [24]: 105%; viability at 10 µM [25]: 63.6%; viability at 10 µM [26]: 75.7%; viability at 10 µM [27]: 86%; viability at 10 µM [28]: 60%; viability at 10 µM [29]: 77.6%; viability at 10 µM [30]: 49.8%; viability at 10 µM [31]: 49.3%; viability at 10 µM [32]: 58%; viability at 10 µM [33]: 40.1%; viability at 10 µM [34]: 84.5%; viability at 10 µM [35]: 82.1%; viability at 10 µM [36]: 80.2%; viability at 10 µM [37]: 89.8%; viability at 10 µM [38]: 87.7%; viability at 10 µM [39]: 79.6%; viability at 10 µM [40]: 57.4%
